Test results reported in ChEMBL document CHEMBL1201862, “PubChem BioAssay data set” (2004).
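Tested at 5 concentrations; 48 h exposure; 96-well plates; endpoints linearly interpolated, else capped at highest concentration. Here, GI50 denotes the concentration required for 50% inhibition of growth.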 Active and inactive are the calls of the source. Rule as the data show it: active = GI50 up to about 1.1 µM and inactive = higher.

Key:
Test in all cases: NCI-60 cell line screen, 48 h
HCT-15 = system: HCT-15
A549 = system: A549
KM12 = system: KM12
CCRF-CEM = system: CCRF-CEM
SF-295 = system: SF-295
U-251 = system: U-251
SK-MEL-2 = system: SK-MEL-2
OVCAR-8 = system: OVCAR-8
LOX IMVI = system: LOX IMVI
UO-31 = system: UO-31
UACC-62 = system: UACC-62
NCI-H460 = system: NCI-H460
NCI-H226 = system: NCI-H226
RPMI-8226 = system: RPMI-8226
OVCAR-4 = system: OVCAR-4
UACC-257 = system: UACC-257
EKVX = system: EKVX
HOP-92 = system: HOP-92
SNB-19 = system: SNB-19
NCI-H522 = system: NCI-H522

| Compound | GI50 (HCT-15) | GI50 (A549) | GI50 (KM12) | GI50 (CCRF-CEM) | GI50 (SF-295) | GI50 (U-251) | GI50 (SK-MEL-2) | GI50 (OVCAR-8) | GI50 (LOX IMVI) | GI50 (UO-31) | GI50 (UACC-62) | GI50 (NCI-H460) | GI50 (NCI-H226) | GI50 (RPMI-8226) | GI50 (OVCAR-4) | GI50 (UACC-257) | GI50 (EKVX) | GI50 (HOP-92) | GI50 (SNB-19) | GI50 (NCI-H522) |
| --- | --- | --- | --- | --- | --- | --- | --- | --- | --- | --- | --- | --- | --- | --- | --- | --- | --- | --- | --- | --- |
| COc1ccc(CC2Cc3ccccc3CCN2)cc1OC (centres undefined) | > 50 µM | 29.8 µM (inactive) | > 50 µM (inactive) | 28.5 µM (inactive) | > 50 µM (inactive) | > 50 µM (inactive) | > 50 µM (inactive) | > 50 µM (inactive) | 38.5 µM (inactive) | 11.8 µM (inactive) | > 50 µM (inactive) | 37.4 µM (inactive) | 12.1 µM (inactive) | 18.3 µM (inactive) | > 50 µM (inactive) | 21.6 µM (inactive) | 26.2 µM (inactive) | 17.9 µM (inactive) | > 50 µM (inactive) |  |
| Nc1ccc(OCC(O)N2C(=O)c3ccccc3C2=O)cc1 (centres undefined) | > 100 µM | > 100 µM (inactive) |  | > 100 µM (inactive) | > 100 µM (inactive) | > 100 µM (inactive) |  | > 100 µM (inactive) | > 100 µM (inactive) | > 100 µM (inactive) | > 100 µM (inactive) | > 100 µM (inactive) |  | > 100 µM (inactive) | > 100 µM (inactive) | > 100 µM (inactive) | > 100 µM (inactive) |  | > 100 µM (inactive) | > 100 µM (inactive) |
| Cc1cc(C)nc(NS(=O)(=O)c2ccc(Nc3c4ccccc4nc4c(C(=O)Nc5ccc(S(=O)(=O)Nc6cc(C)on6)cc5)cccc34)cc2)n1 | > 100 µM | 34.7 µM (inactive) | 20 µM (inactive) |  | 22.8 µM (inactive) | 19.8 µM (inactive) |  | 18.4 µM (inactive) | 19.8 µM (inactive) | 26.4 µM (inactive) | 17.8 µM (inactive) | 25.1 µM (inactive) | 21 µM (inactive) | 22 µM (inactive) | 22.6 µM (inactive) | 25.5 µM (inactive) | 26.2 µM (inactive) | 18.7 µM (inactive) | 24.2 µM (inactive) | 14.7 µM (inactive) |
| COc1ccccc1/N=N/c1c(-c2ccccc2)nn(C(=O)CC(=O)Nc2ccccc2Cl)c1-c1ccccc1 | > 100 µM | > 100 µM (inactive) | > 100 µM (inactive) | 77.8 µM (inactive) | > 100 µM (inactive) | > 100 µM (inactive) |  | > 100 µM (inactive) | > 100 µM (inactive) | > 100 µM (inactive) | > 100 µM (inactive) | > 100 µM (inactive) | > 100 µM (inactive) | 65.5 µM (inactive) | > 100 µM (inactive) | > 100 µM (inactive) | > 100 µM (inactive) |  | > 100 µM (inactive) | > 100 µM (inactive) |
| C=C(CC[C@@H](C)[C@H]1CC[C@@]2(C)C3=C(CC[C@]12C)[C@@]1(C)CC[C@H](O)[C@@H](C)C1CC3)C(C)C (some centres undefined) | 1.2 µM | 1.2 µM (inactive) | 1.26 µM (inactive) | 0.414 µM (active) | 1.08 µM (active) | 1.39 µM (inactive) | 1.56 µM (inactive) | 1.61 µM (inactive) | 0.906 µM (active) | 1.23 µM (inactive) | 1.43 µM (inactive) | 0.679 µM (active) | 1.81 µM (inactive) |  | 1.6 µM (inactive) | 1.49 µM (inactive) | 1.23 µM (inactive) | 1.18 µM (inactive) | 2.17 µM (inactive) |  |
| COC(=O)C1(C)OC(C)=NC1(C(=O)OC)C(=O)OC (centres undefined) | > 100 µM | > 100 µM (inactive) | > 100 µM (inactive) |  | > 100 µM (inactive) | > 100 µM (inactive) | > 100 µM (inactive) | > 100 µM (inactive) | > 100 µM (inactive) | > 100 µM (inactive) | > 100 µM (inactive) | > 100 µM (inactive) | > 100 µM (inactive) | > 100 µM (inactive) | > 100 µM (inactive) | > 100 µM (inactive) | > 100 µM (inactive) | 1.45 µM (inactive) | > 100 µM (inactive) |  |
| CCN1CCCCCCCCCC(=N/O)/C(=N\O)C1 | > 100 µM | > 100 µM (inactive) | > 100 µM (inactive) | > 100 µM (inactive) | > 100 µM (inactive) | > 100 µM (inactive) |  | > 100 µM (inactive) | > 100 µM (inactive) | > 100 µM (inactive) |  | > 100 µM (inactive) | > 100 µM (inactive) |  |  | > 100 µM (inactive) | > 100 µM (inactive) | > 100 µM (inactive) | > 100 µM (inactive) | > 100 µM (inactive) |
| CCC1CN2CCC3(c4ccccc4)CC(C(=O)OC)=CC1C23 (centres undefined) | 17.6 µM | 17.3 µM (inactive) | 15 µM (inactive) | > 100 µM (inactive) | 18.2 µM (inactive) | 16.3 µM (inactive) |  | 17.9 µM (inactive) | 14.6 µM (inactive) | 14.1 µM (inactive) | 15.9 µM (inactive) | 17.7 µM (inactive) | 17 µM (inactive) | 21.3 µM (inactive) | 14.5 µM (inactive) | 16.4 µM (inactive) | 13.5 µM (inactive) | 11.7 µM (inactive) | 20.4 µM (inactive) | 14.1 µM (inactive) |
| CC(C)c1cccc(C(C)C)c1NC(=O)C(=O)C1CCC2=C(Sc3ccccc3N2)C1=O (centres undefined) | 61.7 µM | > 100 µM (inactive) | > 100 µM (inactive) | 24 µM (inactive) | 80.5 µM (inactive) | 34.8 µM (inactive) | > 100 µM (inactive) | 38.7 µM (inactive) | 53.6 µM (inactive) | > 100 µM (inactive) | > 100 µM (inactive) | > 100 µM (inactive) | 29.4 µM (inactive) | 44.4 µM (inactive) | 95.9 µM (inactive) | 67.3 µM (inactive) | > 100 µM (inactive) | > 100 µM (inactive) | > 100 µM (inactive) |  |
| OC1=C(c2ccccc2)C2=NCCN2c2ccccc21 | 33.3 µM | 50.6 µM (inactive) | 31.8 µM (inactive) | 51.5 µM (inactive) | 46.1 µM (inactive) | 73.5 µM (inactive) | 18.7 µM (inactive) | 51.1 µM (inactive) | 31.7 µM (inactive) | 36.9 µM (inactive) | 29.2 µM (inactive) | 49.9 µM (inactive) | 48.9 µM (inactive) | 36.4 µM (inactive) | > 100 µM (inactive) | 93.1 µM (inactive) | 62.5 µM (inactive) | > 100 µM (inactive) | 20 µM (inactive) |  |
| C=CCCC(=O)CC(=O)OCc1ccccc1 | > 100 µM | > 100 µM (inactive) | > 100 µM (inactive) | > 100 µM (inactive) | > 100 µM (inactive) | > 100 µM (inactive) | > 100 µM (inactive) | > 100 µM (inactive) | > 100 µM (inactive) | > 100 µM (inactive) | > 100 µM (inactive) | > 100 µM (inactive) |  | > 100 µM (inactive) | > 100 µM (inactive) | > 100 µM (inactive) | > 100 µM (inactive) | > 100 µM (inactive) | > 100 µM (inactive) |  |
| OCC12C=CC(C1)c1ccccc12 (centres undefined) | > 100 µM | > 100 µM (inactive) |  | > 100 µM (inactive) | > 100 µM (inactive) | > 100 µM (inactive) |  | > 100 µM (inactive) | > 100 µM (inactive) | > 100 µM (inactive) | > 100 µM (inactive) | > 100 µM (inactive) | > 100 µM (inactive) | > 100 µM (inactive) | > 100 µM (inactive) | > 100 µM (inactive) |  | > 100 µM (inactive) | > 100 µM (inactive) |  |
| CO[C@@]12C[C@@H](C)C3=CCC(C)=C3CC1=C(C)C(=O)O2 | > 100 µM |  | > 100 µM (inactive) | 50.8 µM (inactive) | > 100 µM (inactive) | > 100 µM (inactive) | > 100 µM (inactive) | > 100 µM (inactive) | > 100 µM (inactive) | > 100 µM (inactive) | > 100 µM (inactive) | > 100 µM (inactive) | > 100 µM (inactive) | 57.8 µM (inactive) | > 100 µM (inactive) | > 100 µM (inactive) | > 100 µM (inactive) | > 100 µM (inactive) | > 100 µM (inactive) |  |
| C[Si](C)(OCCS(=O)(=O)O)C1S(=O)(=O)OCCOS1(=O)=O | 67.5 µM |  | 91.6 µM (inactive) | 58.1 µM (inactive) | 4.86 µM (inactive) | 21.8 µM (inactive) |  | 86.3 µM (inactive) | 21.2 µM (inactive) | 58.6 µM (inactive) | 13.7 µM (inactive) | 31.7 µM (inactive) | 64.9 µM (inactive) | > 100 µM (inactive) | > 100 µM (inactive) | > 100 µM (inactive) | > 100 µM (inactive) | 23.8 µM (inactive) | 36.8 µM (inactive) | 68.1 µM (inactive) |
| CC(=O)C1C(=O)C(=O)N(c2ccc(Cl)c(Cl)c2)C1=O (centres undefined) | > 100 µM | > 100 µM (inactive) | > 100 µM (inactive) |  | > 100 µM (inactive) | > 100 µM (inactive) | > 100 µM (inactive) | > 100 µM (inactive) | > 100 µM (inactive) | 99.3 µM (inactive) | > 100 µM (inactive) | > 100 µM (inactive) | > 100 µM (inactive) |  |  | > 100 µM (inactive) | > 100 µM (inactive) | > 100 µM (inactive) | > 100 µM (inactive) |  |
| CC(=O)O[C@]1(C(C)=O)CC[C@H]2[C@@H]3C[C@H](C)C4=CC(=O)C=C[C@]4(C)[C@@]3(F)[C@@H](O)C[C@@]21C [FLUOROMETHOLONE ACETATE] | 19.6 µM | 43.2 µM (inactive) | > 100 µM (inactive) | 0.213 µM (active) | 66.7 µM (inactive) | 87.7 µM (inactive) |  |  | 63.5 µM (inactive) | 17.1 µM (inactive) | 23.7 µM (inactive) | 76.9 µM (inactive) | 22.2 µM (inactive) | 11.9 µM (inactive) | 27.4 µM (inactive) | 31.1 µM (inactive) | > 100 µM (inactive) | 85.7 µM (inactive) | > 100 µM (inactive) | 62.1 µM (inactive) |
